From patent publication US20100137358A1, “SOLIFENACIN COMPOSITIONS” (DR. REDDY'S LABORATORIES LTD., priority 1996, published 2010)

Test: Storage stability of amorphous solifenacin succinate and premix compositions, purity and impurities by HPLC
Format: physicochemical
Settings: triple laminated package, nitrogen atmosphere
Method: The spray-dried product was packaged in a triple laminated package (two polyethylene layers covered with a layer of aluminium foil) containing a nitrogen atmosphere and samples were analyzed for impurity content at the time of packaging and after 7 days of storage at 0-5° C., using high-performance liquid chromatography (HPLC). The results are tabulated below:
6. The dried solid was packed in a double polyethylene bag with a silica desiccant pouch and the package was exposed to 0-5° C. and room temperature (RT) conditions for 25 days, then was analyzed by XRD and HPLC. The analytical data are given below:
The solid prepared was packaged in a double polyethylene bag with a silica desiccant and exposed to 0-5° C. and room temperature (RT) conditions for 27 days, and then samples were analyzed by XRD and HPLC. The data are given below:
The dried solid was packaged in a double polyethylene bag with a silica desiccant and exposed to 0-5° C. conditions for 16 days. A sample was then analyzed by XRD and HPLC, giving the following results:
The solid prepared was packaged in a double polyethylene bag and exposed at 0-5° C. and at room temperature (RT) for 20 days. Samples were then analyzed by XRD and by HPLC, giving the data below:
The solid products of Examples 6A and 6B, similarly packaged and stored under 0-5° C. and RT conditions for about 7 months, were analyzed and the data are given below: […]

- HSI (highest single impurity) (7th day of storage at 0-5° C.): 0.25 % of drug content
- HSI (highest single impurity) (initial, at the time of packaging): 0.03 % of drug content
Structure (SMILES): O=C(O[C@H]1CN2CCC1CC2)N1CCc2ccccc2[C@@H]1c1ccccc1 [Example 2, Amorphous Solifenacin Succinate]
